Measured values published in PMC6934184, “Selective DNA-PKcs inhibition extends the therapeutic index of localized radiotherapy and chemotherapy” (The Journal of Clinical Investigation, 2019).

Molecular target: T1, STK17B (DRAK2) (Homo sapiens, UniProt O94768)
T1 construct: purchased Thermo Fisher Scientific (Life Technologies) SelectScreen
Assay: SelectScreen LanthaScreen
Format: binding
Conditions: read-out: % displacement
Summary of the method: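 Percent values come from Thermo SelectScreen profiling of NU5455, combining activity and binding assays. CSF1R was run in Z'LYTE format at Km app ATP, and CAMK1 in Adapta format with ATP listed at 10.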

T1 sequence (O94768 whole entry): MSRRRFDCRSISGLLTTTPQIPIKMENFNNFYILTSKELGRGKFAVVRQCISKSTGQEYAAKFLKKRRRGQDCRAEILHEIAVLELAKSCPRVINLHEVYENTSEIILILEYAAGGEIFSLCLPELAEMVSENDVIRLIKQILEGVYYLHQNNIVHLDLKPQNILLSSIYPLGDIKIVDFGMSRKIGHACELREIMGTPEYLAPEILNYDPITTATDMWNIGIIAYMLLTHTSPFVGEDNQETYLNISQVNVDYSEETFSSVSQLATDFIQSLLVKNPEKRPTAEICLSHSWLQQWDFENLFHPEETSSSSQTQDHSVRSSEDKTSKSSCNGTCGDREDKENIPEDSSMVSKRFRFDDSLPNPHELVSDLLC

Structure (SMILES): CN(C(=O)CN1CCOCC1)c1ccc2sc3c(-c4cccc5c(=O)cc(N6CC7CCC(C6)O7)oc45)cccc3c2c1 [NU5455]
- inhibition at 1 µM: 2.7%
